Test results as given in ChEMBL document CHEMBL6096680, “Development of PRC1 Inhibitors Employing Fragment-Based Approach and NMR-Guided Optimization” (J Med Chem, 2025).
Active and inactive are the calls of the source. The calls are words filed in the database; no cut-off is given here.

Assays:
[1] = organism: Homo sapiens; assay: Binding affinity to 15N-labeled RING1B (10 to 116 residues)/BMI1 (1 to 104 residues) (unknown origin) extracted from Escherichia coli BL21 (DE3) cells assessed as sum of A79, G83 and T89 chemical shift perturbations at 100 uM by NMR binding analysis
[2] = organism: Homo sapiens; assay: Binding affinity to 15N-labeled RING1B (10 to 116 residues)/BMI1 (1 to 104 residues) (unknown origin) extracted from Escherichia coli BL21 (DE3) cells assessed as sum of A79, G83 and T89 chemical shift perturbations at 200 uM by NMR binding analysis
[3] = organism: Homo sapiens; assay: Binding affinity to 15N-labeled RING1B (10 to 116 residues)/BMI1 (1 to 104 residues) (unknown origin) extracted from Escherichia coli BL21 (DE3) cells assessed as ratio of chemical shift perturbations at 1:2 compound concentration ration by NMR binding analysis
[4] = (§1) Inhibition of 6His-tagged RING1B (10 to 116 residues)/BMI1 (1 to 104 residues) (unknown origin) extracted from Escherichia coli BL21 (DE3) cells preincubated with compound for 1 hrs followed by 3-(1-(4,26-dioxo-30-((3aS,4S,6aR)-2-oxohexahydro-1H-thieno[3,4-d]imidazol-4-yl)-7,10,13,16,19,22-hexaoxa-3,25-diazatriacontyl)-6-methoxy-1H-indol-4-yl)-5-(6-fluoro-1H-indol-4-yl)-4-isopropyl-1H-pyrrole-2-carboxylic acid addition and measured after 1 hrs by Alphascreen competition assay; parameters: species or system Homo sapiens
[5] = as §1, with “RING1A (7” for “RING1B (10”, “113 residues)-BMI1” for “116 residues)/BMI1”; parameters: species or system Homo sapiens
[6] = Selectivity ratio of IC50 for inhibition of 6His-tagged RING1B (10 to 116 residues)-BMI1 (1 to 104 residues) (unknown origin) extracted from Escherichia coli BL21 (DE3) cells to IC50 for inhibition of 6His-tagged RING1A (7 to 113 residues)-BMI1 (1 to 104 residues) (unknown origin) extracted from Escherichia coli BL21 (DE3) cells
[7] = Binding affinity to RING1B (10 to 116 residues)/BMI1 (1 to 104 residues) (unknown origin) extracted from Escherichia coli BL21 (DE3) cells assessed as dissociation constant by ITC analysis; parameters: species or system Homo sapiens
[8] = organism: Homo sapiens; assay: Binding affinity to 15N-labeled RING1A (7 to 113 residues)/BMI1 (1 to 104 residues) (unknown origin) extracted from Escherichia coli BL21 (DE3) cells assessed as chemical shift perturbation for amide of Gly83 residue at 60 to 120 uM by 1H-15N HSQC spectra based NMR titration analysis; details: dose 60-120 µM
[9] = organism: Homo sapiens; assay: (§2) Binding affinity to 15N-labeled RING1B (10 to 116 residues)/BMI1 (1 to 104 residues) (unknown origin) extracted from Escherichia coli BL21 (DE3) cells assessed as chemical shift perturbation for amide of Gly83 residue at 60 to 120 uM by 1H-15N HSQC spectra based NMR titration analysis; details: dose 60-120 µM
[10] = Binding affinity to 15N-labeled RING1B (10 to 116 residues)/BMI1 (1 to 104 residues) (unknown origin) extracted from Escherichia coli BL21 (DE3) cells assessed as dissociation constant by NMR-based fragment screening analysis; parameters: species or system Homo sapiens
[11] = (§3) Inhibition of RING1B (10 to 116 residues)-BMI1 (1 to 104 residues) (unknown origin) extracted from Escherichia coli BL21 (DE3) cells using HeLa nucleosome as substrate assessed as reduction in reduction in H2AK119 ubiquitination preincubated with compound for 1 hrs followed by flag-tagged ubiquitin and substrate addition and measured after 1 hrs by Western blot analysis; parameters: species or system Homo sapiens
[12] = organism: Homo sapiens; assay: as §3; details: time 2.0 hrs
[13] = as §2, with “to” for “to 15N-labeled”, “by measuring estimated dissociation constant” for “at 60 to 120 uM”; parameters: species or system Homo sapiens

SMILES | Activity [1] [Hz] | Activity [2] [Hz] | Ratio [3] | IC50 [4] [µM] | also measured
CCc1cc(-c2c(C(=O)O)[nH]c(-c3cc(F)cc4[nH]ccc34)c2C(C)C)c2cc[nH]c2c1 | 285 | 309 | 0.92 | 5.4 | IC50 [5]: 3.2 µM; Ratio IC50 [6]: 2
Cc1cc(-c2[nH]c(C(=O)O)c(-c3c(Cl)ccc4[nH]ccc34)c2C(C)C)c2cc[nH]c2c1 |  |  |  | 5.8 | IC50 [5]: 2.5 µM; Ratio IC50 [6]: 2
CC(C)c1c(-c2cc(F)cc3cc[nH]c23)[nH]c(C(=O)O)c1-c1c(Cl)ccc2[nH]ccc12 |  |  |  | 4.4 | 
CC(c1c(-c2cccc3[nH]ccc23)[nH]c(C(=O)O)c1-c1cccc2[nH]ccc12)C(F)F (stereo not drawn) | 215 | 264 | 0.81 | 8.2 | IC50 [5]: 4.3 µM; Ratio IC50 [6]: 2
COc1cc(-c2[nH]c(C(=O)O)c(-c3c(Cl)ccc4[nH]ccc34)c2C(C)C)c2cc[nH]c2c1 |  |  |  | 5 | 
Cc1ccc2[nH]ccc2c1-c1[nH]c(C(=O)O)c(-c2c(Cl)ccc3[nH]ccc23)c1C(C)C |  |  |  | 5.1 | 
CC(C)c1c(-c2cccc3[nH]ccc23)[nH]c(C(=O)O)c1-c1cccc2[nH]ccc12 | 295 | 311 | 0.95 | 3.6 | Kd [7]: 6.5 µM
CC(C)c1c(-c2cccc3[nH]c(C(=O)O)cc23)[nH]c(C(=O)O)c1-c1c(Cl)ccc2[nH]ccc12 |  |  |  | 2.2 | 
COc1cc(-c2c(C(=O)O)[nH]c(-c3cc(F)cc4[nH]ccc34)c2C(C)C)c2ccn(CCNC(=O)CCOCCOCCOCCOCCOCCOCCNC(=O)CCCC[C@@H]3SC[C@@H]4NC(=O)N[C@@H]43)c2c1 |  |  |  |  | Activity [8]: Active; Activity [9]: Active
O=C(O)c1ccc(-c2ccccc2)s1 |  |  |  |  | Kd [10]: 7000 µM
CCc1c(-c2cccc3[nH]ccc23)[nH]c(C(=O)O)c1-c1cccc2[nH]ccc12 | 102 | 163 | 0.63 | 13 | Kd [10]: 9 µM; IC50 [11]: 19.3 µM; inhibition [12]: Dose-dependent-effect; Inhibition Of E3 Ligase Activity Of Prc1 Observed
CCc1c(C(=O)O)[nH]c(-c2cccc3[nH]ccc23)c1CC |  |  |  |  | Kd [13]: 250 µM
CC(C)c1c(-c2cc(F)cc3[nH]ccc23)[nH]c(C(=O)O)c1-c1cc(Cl)cc2[nH]ccc12 | 280 | 305 | 0.92 | 2.8 | 
CC(C)c1c(-c2cc(C(F)(F)F)cc3[nH]ccc23)[nH]c(C(=O)O)c1-c1c(Cl)ccc2[nH]ccc12 |  |  |  | 7.2 | IC50 [11]: 6.7 µM; inhibition [12]: Dose-dependent-effect; Inhibition Of E3 Ligase Activity Of Prc1 Observed
COc1cc(-c2c(C(=O)O)[nH]c(-c3cc(F)cc4[nH]ccc34)c2C(C)C)c2cc[nH]c2c1 | 318 | 338 | 0.92 | 2.5 | 
CC(CF)c1c(-c2cccc3[nH]ccc23)[nH]c(C(=O)O)c1-c1cccc2[nH]ccc12 (stereo not drawn) | 216 | 277 | 0.78 | 8 | 
CCOc1cc(-c2c(C(=O)O)[nH]c(-c3cc(F)cc4[nH]ccc34)c2C(C)C)c2cc[nH]c2c1 | 313 | 331 | 0.95 | 2.3 | 
O=C(O)c1ccc(-c2ccccc2)[nH]1 |  |  |  |  | Kd [10]: 3600 µM
CCc1c(-c2cccc3[nH]ccc23)[nH]c(C(=O)O)c1-c1ccccc1 |  |  |  |  | Kd [13]: 30 µM

SMILES | Activity [1] [Hz] | Activity [2] [Hz] | Ratio [3] | IC50 [4] [µM] | also measured
CCc1cc(-c2[nH]c(C(=O)O)c(-c3c(Cl)ccc4[nH]ccc34)c2C(C)C)c2cc[nH]c2c1 |  |  |  | 6.3 | 
Cc1cc(C(=O)O)[nH]c1-c1cccc2[nH]ccc12 |  |  |  |  | Kd [10]: 1400 µM
Cc1cc(-c2cccc3[nH]ccc23)[nH]c1C(=O)O |  |  |  |  | Kd [13]: 1100 µM
CC(C)c1c(-c2cc(F)cc3[nH]ccc23)[nH]c(C(=O)O)c1-c1cc(F)cc2[nH]ccc12 | 320 | 330 | 0.97 | 4.3 | 
CCc1c(-c2cccc3[nH]ccc23)[nH]c(C(=O)O)c1C1CCCCC1 |  |  |  |  | Kd [13]: 170 µM
CC(C)c1c(-c2ccc3cc[nH]c3c2)[nH]c(C(=O)O)c1-c1c(Cl)ccc2[nH]ccc12 |  |  |  | 10.9 | 
CC(C)c1c(-c2cc(F)cc3[nH]ccc23)[nH]c(C(=O)O)c1-c1cccc2[nH]ccc12 | 308 | 329 | 0.94 | 3.3 | Kd [7]: 4 µM
CC(C)c1c(-c2cccc3[nH]c(CO)cc23)[nH]c(C(=O)O)c1-c1c(Cl)ccc2[nH]ccc12 |  |  |  | 2 | 
CC(CO)c1c(-c2cccc3[nH]ccc23)[nH]c(C(=O)O)c1-c1cccc2[nH]ccc12 (stereo not drawn) | 107 | 172 | 0.62 | 37.7 | 
CCC(C)c1c(-c2cccc3[nH]ccc23)[nH]c(C(=O)O)c1-c1cccc2[nH]ccc12 (stereo not drawn) | 268 | 291 | 0.92 | 5.6 | 
CC(C)c1c(-c2ccc3[nH]ccc3c2)[nH]c(C(=O)O)c1-c1c(Cl)ccc2[nH]ccc12 |  |  |  | 4 | 
CC(C)c1c(-c2cccc3[nH]ccc23)[nH]c(C(=O)O)c1-c1c(Cl)ccc2[nH]ccc12 |  |  |  | 2.9 | 
CCc1c(-c2cccc3[nH]ccc23)[nH]c(C(=O)O)c1-c1ccccc1Cl |  |  |  |  | Kd [10]: 11.5 µM
O=C(O)c1[nH]c(-c2cccc3[nH]ccc23)c(C2CC2)c1-c1cccc2[nH]ccc12 | 138 | 211 | 0.65 | 15.8 | 
CC(C)c1c(-c2cc(F)cc3[nH]ccc23)[nH]c(C(=O)O)c1-c1cc(C(F)(F)F)cc2[nH]ccc12 | 298 | 319 | 0.93 | 5.5 | 
Cc1cc(-c2c(C(=O)O)[nH]c(-c3cc(F)cc4[nH]ccc34)c2C(C)C)c2cc[nH]c2c1 | 261 | 319 | 0.82 | 4.8 | IC50 [5]: 2.6 µM; Ratio IC50 [6]: 2
O=C(O)c1ccc(-c2cccc3[nH]ccc23)[nH]1 |  |  |  |  | Kd [13]: 2200 µM
CC(C)c1c(-c2cc(Cl)cc3[nH]ccc23)[nH]c(C(=O)O)c1-c1c(Cl)ccc2[nH]ccc12 |  |  |  | 5.3 | 
